Experiments:
[1] = tested on: subjects with Treatment Resistant Depression (TRD); assay: MADRS total score, double-blind placebo-controlled intranasal induction study; format: in vivo, human; conditions: for Mean Differences (SE) from placebo, MADRS total score: Day 8, data from both Periods 1 and 2; for Estimated Differences from placebo, MADRS total score: best fit sigmoidal Emax model; for Least Square Mean Difference from Placebo, MADRS total score: change from baseline to Day 8, ANCOVA LOCF
From the text: The subjects discussed in Examples 1 to 5 included adult men and women, 18 (or older if the minimum legal age of consent in the country in which the study is taking place is >18) to 64 years of age (inclusive), who meet diagnostic criteria for recurrent MDD or single-episode MDD, based upon clinical assessment.
This example was a 2-panel, doubly-randomized, double-blind, placebo-controlled, multicenter study. In both panels, each subject participated in a screening phase of up to 4 weeks and/or a double-blind treatment phase which includes two 1-week periods (Period 1 and Period 2).
Sixty-seven (67) subjects with Treatment Resistant Depression (TRD) were randomly assigned in a 3:1:1:1 ratio to 1 of the 4 treatment groups in Table 1.
All subjects self-administered the intranasal esketamine (28, 56, or 84 mg) or placebo on non-consecutive days. Each intranasal device contains 2 sprays and contain esketamine deliver 14 mg per spray, for a total of 28 mg per individual device (i.e., 2 sprays). […] Food was restricted for 8 hours before each administration of study drug and the drinking of fluids was restricted for at least 30 minutes before the first nasal spray.
In Period 2, 28 placebo subjects who were eligible for re-randomization at the end of Period 1 were randomly assigned to as noted in Table 1 in a 1:1:1:1 ratio. Subjects eligible for re-randomization had to have a QIDS-SR16 total score >11 at the end of Period 1. Central randomization was implemented in this study. Both randomizations were balanced using randomly permuted blocks and were stratified by study center. The randomization for Period 2 was also stratified by QIDS-SR16 score at the end of Period 1 (moderate=11-16; severe >16) Subjects who were randomly assigned to esketamine in Period 1 continued to receive esketamine in Period 2, while Period 1 placebo subjects with a QIDS-SR16 total score <11 continued with placebo in Period 2.
The Period 1 ITT analysis set consisted of all randomized subjects who received at least 1 dose of study medication during Period 1 and had both the baseline and at least one post baseline value for the primary endpoint measure, MADRS total score, within Period 1. The Period 2 ITT analysis set consisted of all Period 1 placebo subjects who were eligible for re-randomization (QIDS-SR16≧11 at end of Period 1), who actually got re-randomized into Period 2 and received at least 1 dose of study medication during Period 2, and had both the baseline and at least one post baseline MADRS total score within Period 2.
The MADRS consisted of 10 items that covered all of the core depressive symptoms (apparent sadness, reported sadness, inner tension, sleep, appetite, concentration, lassitude, interest level, pessimistic thoughts, and suicidal thoughts). Each item was scored from 0 (item is not present or is normal) to 6 (severe or continuous presence of the symptom). A total score (0 to 60) was calculated by summing the scores of all 10 items. A higher score represented a more severe condition. Sustained response (onset of clinical response) was defined as at least 50% improvement from baseline in the MADRS total score with an onset by Day 2 that was maintained to study Day 15. The primary efficacy endpoint was the change in MADRS total score from baseline to Day 8 in each period, with the analysis based on data combined across both periods. The primary efficacy analysis was performed on the intent-to-treat (ITT) analysis sets that were defined for each period, which included all randomized subjects who received at least 1 dose of study medication during that period and have both the baseline and at least one post baseline MADRS total score within that period. Significance was based on a one-sided alpha level of 0.05.
A separate ANCOVA model was performed on last observation carried forward (LOCF) data for each period. Changes from baseline in Period 1 were modeled with treatment as a factor and Period 1 baseline value as a covariate. […]

[2] = tested on: subjects with Treatment Resistant Depression (TRD); assay: Treatment emergent adverse events (TEAE) in the subjects of Example 1
From the text: The treatment emergent adverse event (TEAE) side effects for the subjects of Example were obtained. See, Table 7.

[3] = tested on: subjects with Treatment Resistant Depression (TRD); assay: Clinician Administered Dissociative States Scale (CADSS); format: in vivo, human; conditions: post dose; intranasal
Method: The Clinician Administered Dissociative States Scale (CADSS) was measured prior to the start of each dose, at 40 minutes and at 2 hours post dose. The CADSS is used to assess treatment emergent dissociative symptoms and perceptual changes and the total score ranges from 0 to 92 with a higher score representing a more severe condition. […] See, FIG. 4.

[4] = tested on: NMDA receptor; conditions: compared with the R-enantiomer (arketamine); cited from earlier work

Question: Which results are given for `CN[C@]1(c2ccccc2Cl)CCCCC1=O.Cl` [Esketamine, (S)-2-(2-chlorophenyl)-2-(methylamino)cyclohexanone hydrochloride]?
Answer: statistical comparison with placebo, dose response model, MADRS total score ([1]; 14 mg (model estimate, dose not studied), 90% CI included 0): not statistically different from placebo; Mean Differences (SE) from placebo, MADRS total score ([1]; 28 mg): −4.2 (2.09); Estimated Differences from placebo, MADRS total score ([1]; 28 mg): −4.22; statistical comparison with placebo, dose response model, MADRS total score ([1]; 28 mg, sigmoidal Emax model, 90% CI): statistically superior to placebo; Mean Differences (SE) from placebo, MADRS total score ([1]; 56 mg): −6.3 (2.07); Estimated Differences from placebo, MADRS total score ([1]; 56 mg): −7.04; statistical comparison with placebo, dose response model, MADRS total score ([1]; 56 mg, sigmoidal Emax model, 90% CI): statistically superior to placebo; Mean Differences (SE) from placebo, MADRS total score ([1]; 84 mg): −9.0 (2.13); Estimated Differences from placebo, MADRS total score ([1]; 84 mg): −8.45; statistical comparison with placebo, dose response model, MADRS total score ([1]; 84 mg, sigmoidal Emax model, 90% CI): statistically superior to placebo; Least Square Mean Difference from Placebo, MADRS total score ([1]; Period 1, 28 mg intranasal): −5.0; Least Square Mean Difference from Placebo, MADRS total score ([1]; Period 1, 56 mg intranasal): −7.6; Least Square Mean Difference from Placebo, MADRS total score ([1]; Period 1, 84 mg intranasal): −10.5; Least Square Mean Difference from Placebo, MADRS total score ([1]; Period 2, 28 mg intranasal): −3.1; Least Square Mean Difference from Placebo, MADRS total score ([1]; Period 2, 56 mg intranasal): −4.4; Least Square Mean Difference from Placebo, MADRS total score ([1]; Period 2, 84 mg intranasal): −6.9; statistical comparison with placebo, MADRS total score ([1]; all three groups (28, 56, 84 mg), Period 1 and Period 2 combined, weighted combination test, one-sided 0.05): statistically superior to placebo; Estimated Differences from placebo, MADRS total score ([1]; dose cell blank (14 mg per text, dose not studied)): −1.98; Patients Experiencing on TEAE ([2]; Period 1, 28 mg intranasal): 73; Patients Experiencing on TEAE ([2]; Period 1, 56 mg intranasal): 82; Patients Experiencing on TEAE ([2]; Period 1, 84 mg intranasal): 83; Patients Experiencing on TEAE ([2]; Period 2, 28 mg intranasal): 38; Patients Experiencing on TEAE ([2]; Period 2, 56 mg intranasal): 78; Patients Experiencing on TEAE ([2]; Period 2, 84 mg intranasal): 100; subjects who experienced at least one TEAE ([2]; overall, esketamine in either Period 1 or Period 2): about 79%; time of peak of dissociative and perceptual change symptoms (CADSS) [3]: ≤ 40 min; time to resolution of dissociative and perceptual change symptoms (CADSS) [3]: ≤ 2 h; potency or affinity for the NMDA receptor [4]: higher potency or affinity

Reference: US20160338977A1, “METHODS AND KITS FOR TREATING DEPRESSION” (Janssen Pharmaceutica NV, priority 2015, published 2016)
